Measured values published in a melting point compilation (Tetko et al.).

Compound | melting point [°C]
O=C(O)C1CCC(=O)N(Cc2ccccc2)C1 (stereo unspecified) | 154 to 156
O=C(O)c1ccc(-c2ccccc2)o1 | 153 to 155
Cc1ccc(C(C)C)c(OC(C)C(=O)O)c1 (stereo unspecified) | 61 to 63
CC1=NNC(=O)C1CCN (stereo unspecified) | 229 to 231
CSc1nc2[nH]cnc(=O)c2s1 | 269 to 271
COc1ccc(S(N)(=O)=O)c(N)c1 | 139 to 141
NC(=O)c1cc(N2CCCCC2)ccc1N | 168 to 170
CCn1c(S)nc2ccccc21 | 135 to 137
NN=c1ccc(C(N)=O)n[nH]1 | 251 to 253
O=C1NC(=O)C2(CN3CCC2CC3)N1 (stereo unspecified) | 298 to 300
CC(C)(C)OC(=O)NC1CCC2CNCC21 (stereo unspecified) | 109 to 111
NC(=O)NC(=O)OCCCl | 185 to 187
COC(=O)c1ccccc1CBr | 31 to 33
NC(=O)Cc1ccccc1Cl | 178 to 180
NC(=O)C1CNc2ccccc21 (stereo unspecified) | 150 to 152
Nc1cc(Cl)cc(C(=O)O)c1F | 196 to 198
O=c1[nH]c(CCl)nc2sccc12 | 209 to 211
Cc1cc(C(=O)O)c2c(C)n[nH]c2n1 | 299 to 301
O=[N+]([O-])c1ccc(Cn2ccnc2)cc1 | 39 to 41
COc1ccc(NC(=O)CCCl)cc1 | 120 to 122

Compound | melting point [°C]
C=CC(=O)Nc1ccccc1 | 103 to 106
COc1c(C#N)cnc2ccccc12 | 106 to 108
COCCn1nnnc1N | 114 to 116
COc1ccc(NS(=O)(=O)c2cc(N)ccc2N2CCCC2)cc1 | 178 to 182
CC(C)(C(=O)O)S(=O)(=O)c1ccc(Br)cc1 | 162 to 164
CC1(C)Nc2ccccc2NC1=O | 179 to 181
COc1ccc(C(=O)O)cc1S(=O)(=O)NCc1ccc(Cl)cc1 | 230 to 232
COc1ccc(N)cc1CO | 115 to 117
Cc1cccc(NC(=O)CCl)c1 | 128 to 130
Cc1cc(-c2csc(N)n2)c(C)s1 | 72 to 74
COc1cc(NC(=O)c2ccco2)c(C(=O)O)cc1OC | 88 to 90
O=C(CCl)N1c2ccccc2CCc2ccccc21 | 96 to 98
Nc1ccc2[nH]c(=O)c(=O)[nH]c2c1 | 352 to 354
Clc1cc(Cl)nc(C2CC2)n1 | 39 to 41
O=C(O)CCNS(=O)(=O)c1ccc2ccccc2c1 | 170 to 180
COc1cc(C(=O)O)cc(OC)c1OCc1ccccc1 | 155 to 159
Cc1cccc(C)c1NS(=O)(=O)c1ccc(N)cc1 | 212 to 214
Cc1nnc(CCl)o1 | 32 to 40
CN(CCCN1C(=O)C=CC1=O)c1ccccc1 | 84 to 86
O=c1nc(CCl)[nH][nH]1 | 179 to 181

Compound | melting point [°C]
O=C(CN1C(=O)CCC1=O)c1ccccc1Cl | 118 to 120
Cc1cc(C(=O)O)sc1-c1ccc(F)cc1 | 206 to 208
CC(C)(C)OC(=O)NC(C(=O)O)C(C)(C)C (stereo unspecified) | 117 to 119
CCC(=O)Nc1cccc(C#N)c1 | 84 to 86
CNC(=O)NCC(=O)O | 138 to 140
CCOC(=O)C(=O)c1cc(F)ccc1OC | 49 to 51
O=C(O)CNc1ccccc1[N+](=O)[O-] | 80 to 82
O=C(O)c1ccc(-c2noc(-c3ccc(F)cc3)n2)cc1 | 291 to 293
COc1ccc(COc2ccc(C#N)cn2)cc1 | 101 to 103
C=CCN(c1ccccc1Cl)S(=O)(=O)c1cccc(C(=O)O)c1 | 103 to 105
O=C(O)c1c(O)cccc1Cl | 166 to 168
NC(=O)c1c(C2CCCCC2)csc1N | 164 to 166
CCCc1ccc2c(c1)C(=O)C(=O)N2 | 104 to 106
Cc1sc2nc(C)n(N)c(=O)c2c1C | 204 to 206
Nc1ccc(OCc2cccc(F)c2)c(F)c1 | 43 to 45
Cc1cc(Br)cc2c1NC(=O)C2=O | 298 to 300
c1ccc(NC2=NCCCS2)cc1 | 124 to 126
Cc1cc(S(=O)(=O)N(C)C)cc(N)c1C | 178 to 180
COc1ccc(N2CCC(=O)CC2)cc1 | 66 to 68
Cc1nc2nnnn2c(C)c1CCC(=O)O | 187 to 189

Continued, values first:

melting point [°C] | Compound
64 to 66 | COC(=O)C1CCc2cn[nH]c2C1 (stereo unspecified)
39 to 43 | N#Cc1ccc(CO)cc1
199 to 201 | CC(=O)Nc1cccc(NC(=O)C2CCNCC2)c1
211 to 213 | Cc1nnc(N2CCCC2)c(C(N)=O)c1C
79 to 81 | CSc1cc(N)ccn1
289 to 291 | N#Cc1cnn(-c2ccc(C(=O)O)cc2)c1N
146 to 148 | CN(C)C(=O)N1CCC(C(=O)O)CC1
220 to 229 | NNc1ccc([N+](=O)[O-])cc1S(=O)(=O)Nc1ccccc1Cl
142 to 144 | O=[N+]([O-])c1ccc2c(c1)NCCS2
174 to 176 | CC(CO)Nc1nc2ccccc2[nH]1 (stereo unspecified)
167 to 169 | Oc1nnc(S)n1CCc1ccccc1
207 to 209 | O=C(O)CNC(=O)c1cc2c(s1)CCC2
215 to 217 | COC(=O)Nc1snc(C)c1C(=O)O
159 to 161 | CCn1ncc(C#N)c1N
74 to 76 | COc1cccc(-c2nonc2N)c1
150 to 152 | N#Cc1ccsc1NC(=O)CCCl
201 to 203 | COc1ccc(C(=O)O)cc1S(=O)(=O)NC1CCCCC1C (stereo unspecified)
49 to 51 | CCOC(=O)CS(=O)(=O)Cc1ccccc1
148 to 150 | NC(=O)C1(Nc2ccccc2)CCCCC1
70 to 72 | Cc1cc(Cl)nc(-c2cccnc2)n1
101 to 103 | COC(=O)C(=O)CC(=O)c1ccc(OC)cc1OC
84 to 86 | Cc1nc(-c2ccccc2)sc1CCl

melting point [°C] | Compound
241 to 243 | O=C1NC(=O)c2ncccc21
142 to 144 | Nc1cc(-c2ccccc2)nn1CCO
209 to 211 | O=C(O)/C=C/c1ccc(Br)s1
235 to 237 | O=C(O)c1ccc(-n2cccn2)c(F)c1
119 to 121 | O=C(CC(=O)NCc1ccccc1)NCc1ccccc1
78 to 80 | NC(=O)c1cccc(S(=O)(=O)Cl)c1
82 to 84 | NC1CCN(c2ncccn2)CC1
252 to 254 | Cc1nnc(Cl)n1-c1ccccc1
139 to 141 | COc1cc(F)c([N+](=O)[O-])cc1OC
71 to 73 | Cc1cccc(CNC(=O)CCl)c1
144 to 146 | Cc1ccc(Br)cc1N1CCCS1(=O)=O
91 to 93 | Cc1nn(C)c(Oc2cccnc2)c1C=O
236 to 238 | O=C(O)c1cccnc1SCc1ccc(Br)cc1
179 to 182 | Clc1nc(-c2cccnc2)nc2sc(-c3ccccc3)cc12
221 to 223 | Cn1cc(OCc2ccccc2)c(=O)cc1CO
93 to 95 | Cc1ccnn1-c1cccc(N)c1
132 to 134 | NC(=S)c1ccco1
279 to 281 | CN1CC(=O)N(CC(=O)Nc2ccccc2)C1=O
119 to 121 | CNS(=O)(=O)c1ccccc1N1CCC(N)CC1
114 to 116 | Cc1ccc(C(=O)NC2CC2)cc1N
90 to 92 | Nn1c(S)nnc1-c1ccc(Cl)cc1Cl
173 to 175 | O=c1cc[nH]c2c(Br)cccc12

melting point [°C] | Compound
206 to 208 | O=C(O)C1CC(O)CN1C(=O)C12CC3CC(CC(C3)C1)C2 (stereo unspecified)
111 to 113 | COc1ccc(C(C)=O)cc1CC#N
153 to 155 | CC(C)(C)OC(=O)Nc1cscn1
59 to 61 | CCCOc1ccc(Cl)cc1C(=O)O
145 to 154 | Nc1ccc(S(N)(=O)=O)cc1N
97 to 99 | CC1CC(C)CN(C(=O)c2ccccc2N)C1 (stereo unspecified)
78 to 82 | c1ccc(Nc2ccccn2)cc1
254 to 256 | O=C(O)C1CC(=O)N(c2ccc3c(c2)Cc2ccccc2-3)C1 (stereo unspecified)
139 to 141 | O=C(O)c1ncc(Cl)cc1Cl
291 to 293 | NC(=O)NCc1ccc(C(=O)O)cc1
84 to 86 | O=C(O)CCCCN1C(=O)C=CC1=O
154 to 156 | O=C(O)C1CCCN1C(=O)c1ccc([N+](=O)[O-])o1 (stereo unspecified)
169 to 171 | NC(=O)CN(Cc1ccccc1)c1cccc(N)c1
284 to 286 | O=C(O)c1cccc2cccc(-c3cccc4cccc(C(=O)O)c34)c12
114 to 116 | Cn1ncc(Br)c(Br)c1=O
142 to 144 | NNC(=O)c1ccc2c(c1)OCCO2
51 to 53 | Cc1ccc(N)c(OCCN(C)C)c1
87 to 89 | CC(O)c1ccc(CN)cc1 (stereo unspecified)
331 to 333 | Nc1cccc(-c2c3c(=O)[nH][nH]c(=O)c3c3n2CCC3)c1
192 to 194 | COc1cc(F)c(C(=O)O)cc1OC
111 to 113 | O=C(O)c1sccc1S(=O)(=O)N1CCCCC1
153 to 155 | CC(C)CN(C(=O)CCl)c1c(N)n(CC(C)C)c(=O)[nH]c1=O

melting point [°C] | Compound
83 to 85 | O=C1CNCCN1Cc1ccc(Cl)cc1
152 to 156 | NC(=NO)c1ccc(O)cc1
110 to 112 | Nc1c(Cl)ncnc1-n1cccn1
229 to 231 | NC(C(=O)O)c1cc(F)ccc1F (stereo unspecified)
108 to 110 | CC(C)CCOc1ccc(C(=O)NN)cc1
122 to 124 | Cc1cc(Cl)c2cc(Cl)cc(C)c2n1
73 to 75 | CCc1noc(CC)c1CC(=O)O
259 to 261 | O=C(O)COCc1nc2ccccc2c(=O)[nH]1
175 to 177 | Cc1cn(CC(=O)O)c2ccccc12
150 to 152 | Nc1cc2c(cc1[N+](=O)[O-])OCCO2
59 to 61 | CCOC(=O)c1ccccc1C#N
43 to 45 | Brc1ccc(Cn2cccn2)cc1
172 to 174 | O=C1COc2cccc(F)c2N1
179 to 181 | O=C(O)c1cc(-c2cccnc2)on1
142 to 144 | O=C(O)CN1CCN(C(=O)OCc2ccccc2)CC1
169 to 171 | NCc1ccc(N2CCCC(C(N)=O)C2)cc1 (stereo unspecified)
159 to 161 | Cn1cc(C#N)ccc1=O
157 to 159 | CCOc1cc(C(N)=NO)cc(Br)c1O
180 to 182 | CC(NC(=O)c1ccc(S(=O)(=O)N(C)C)cc1)C(=O)O (stereo unspecified)
133 to 135 | Cc1ccc(S(=O)(=O)CC(=O)CBr)cc1
